One test concerns the target T1, Recombinant human liver GK1 (GST-GK) (Homo sapiens, UniProt P35557).
T1 construct: made in house; host or cells: E. coli
T1 sequence (P35557 1-466 isoform P35557-2): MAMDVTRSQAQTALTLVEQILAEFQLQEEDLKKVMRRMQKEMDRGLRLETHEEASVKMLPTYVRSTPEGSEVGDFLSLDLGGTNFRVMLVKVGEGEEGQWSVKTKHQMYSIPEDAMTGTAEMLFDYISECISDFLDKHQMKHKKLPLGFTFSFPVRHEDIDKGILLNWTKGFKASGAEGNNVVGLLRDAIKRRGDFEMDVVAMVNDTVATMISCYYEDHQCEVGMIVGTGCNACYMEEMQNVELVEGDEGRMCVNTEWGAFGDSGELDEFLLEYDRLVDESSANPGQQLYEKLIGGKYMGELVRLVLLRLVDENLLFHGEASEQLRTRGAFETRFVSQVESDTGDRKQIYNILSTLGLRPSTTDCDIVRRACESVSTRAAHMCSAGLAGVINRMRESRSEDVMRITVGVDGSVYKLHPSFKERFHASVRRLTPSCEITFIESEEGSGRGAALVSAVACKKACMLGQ
As to the kind of experiment: In vitro glucokinase activity assay (G6PDH-coupled, NADH, OD340). It is filed as biochemical. The following applies: at 30 μM. On the procedure: Glucokinase In Vitro Assay Protocol: Glucokinase (GK) was assayed by coupling the production of glucose-6-phosphate to the generation of NADH with glucose-6-phosphate dehydrogenase (G6PDH, 0.75-1 kunits/mg; Boehringer Mannheim, Indianapolis, Ind.) from Leuconostoc mesenteroides as the coupling enzyme (Scheme 2).
Recombinant human liver GK1 was expressed in E. coli as a glutathione S-transferase fusion protein (GST-GK) [Liang et al, 1995] and was purified by chromatography over a glutathione-Sepharose 4B affinity column using the procedure provided by the manufacturer (Amersham Pharmacia Biotech, Piscataway, N.J.).
The assay was conducted at 30° C. in a flat bottom 96-well tissue culture plate from Costar (Cambridge, Mass.) with a final incubation volume of 120 μL. The incubation reaction contained the following: 25 mM Hepes buffer (pH 7.1), 25 mM KCl, 5 mM D-glucose, 1 mM ATP, 1.8 mM NAD, 2 mM MgCl2, 1 μM sorbitol-6-phosphate, 1 mM dithiothreitol, test drug or 10% dimethylsulfoxide, ˜7 units/ml G6PDH, and GK (see below). All organic reagents were >98% pure and were from Boehringer Mannheim with the exceptions of D-glucose and Hepes which were from Sigma Chemical Co, St Louis, Mo. Test compounds were dissolved in dimethylsulfoxide and were added to the incubation reaction minus GST-GK in a volume of 12 μL to yield a final dimethylsulfoxide concentration of 10%. This mix was pre-incubated in the temperature controlled chamber of a SPECTRAmax 250 microplate spectrophotometer (Molecular Devices Corporation, Sunnyvale, Calif.) for 10 minutes to allow temperature equilibrium and then the reaction was started by the addition of 20 μL GST-GK.
After addition of enzyme, the increase in optical density (OD) at 340 nm was monitored spectrophotometrically to determine the rate of change (OD340 per min). The GK activity (OD340/min) in control wells (10% dimethylsulfoxide minus GK activators) was compared with the activity in wells containing test GK activators, and the concentration of activator that produced a 50% increase in the activity of GK, i.e., the SC1.5, was calculated.
In the case of `COc1cnc2[nH]c(C(CC3CCCC3)c3ccc(C(C)(C)O)cc3)cc2c1` (stereo not shown) [Example 35, 2-{4-[2-Cyclopentyl-1-(5-methoxy-1H-pyrrolo[2,3-b]pyridin-2-yl)-ethyl]-phenyl}-propan-2-ol], the “fold activation of GK” value was 1.4 fold at 30.

The same test, now with this note: concentration of activator that produced a 50% increase in the activity of GK; 5 mM D-glucose, 30° C.
With `CS(=O)(=O)c1ccc(C(CC2CCCC2)c2cc3cc(CO)cnc3[nH]2)cc1` (stereo not shown) [Example 8, {2-[2-Cyclopentyl-1-(4-methanesulfonyl-phenyl)-ethyl]-1H-pyrrolo[2,3-b]pyridin-5-yl}-methanol], the SC1.5 amounted to 3.4 µM. On the same count and under the same terms, in the case of `CS(=O)(=O)c1ccc(C(CC2CCCC2)c2cc3cc(CC(O)CO)cnc3[nH]2)cc1` (stereo not shown) [Example 11, 3-{2-[2-Cyclopentyl-1-(4-methanesulfonyl-phenyl)-ethyl]-1H-pyrrolo[2,3-b]pyridin-5-yl}-propane-1,2-diol] it was 7.3 µM; in that of `COc1cnc2[nH]c(C(CC3CCCC3)c3ccc(S(C)(=O)=O)cc3)cc2c1` (stereo not shown) [Example 12, 2-[2-Cyclopentyl-1-(4-methanesulfonyl-phenyl)-ethyl]-5-methoxy-1H-pyrrolo[2,3-b]pyridine], 0.18 µM. Same read-out and setting: for `CN(C)C(=O)COc1cnc2[nH]c(C(CC3CCCC3)c3ccc(S(C)(=O)=O)cc3)cc2c1` (stereo not shown) [Example 13, 2-{2-[2-Cyclopentyl-1-(4-methanesulfonyl-phenyl)-ethyl]-1H-pyrrolo[2,3-b]pyridin-5-yloxy}-N,N-dimethyl-acetamide] the value was 2.0 µM; for `COCCOc1cnc2[nH]c(C(CC3CCCC3)c3ccc(S(C)(=O)=O)cc3)cc2c1` (stereo not shown) [Example 15, 2-[2-Cyclopentyl-1-(4-methanesulfonyl-phenyl)-ethyl]-5-(2-methoxy-ethoxy)-1H-pyrrolo[2,3-b]pyridine], 0.451 µM.

As to `CN(C)CCOc1cnc2[nH]c(C(CC3CCCC3)c3ccc(S(C)(=O)=O)cc3)cc2c1` (stereo not shown) [Example 17, (2-{2-[2-Cyclopentyl-1-(4-methanesulfonyl-phenyl)-ethyl]-1H-pyrrolo[2,3-b]pyridin-5-yloxy}-ethyl)-dimethyl-amine], the SC1.5 was determined as 3.1 µM. `CC(C)Oc1cnc2[nH]c(C(CC3CCCC3)c3ccc(S(C)(=O)=O)cc3)cc2c1` (stereo not shown) [Example 18, 2-[2-Cyclopentyl-1-(4-methanesulfonyl-phenyl)-ethyl]-5-isopropoxy-1H-pyrrolo[2,3-b]pyridine]: the SC1.5 was 0.719 µM.

As for `COc1cnc2[nH]c(C(CC3CCCC3)c3ccc(C(F)(F)F)cc3)cc2c1` (stereo not shown) [Example 20, 2-[2-Cyclopentyl-1-(4-trifluoromethyl-phenyl)-ethyl]-5-methoxy-1H-pyrrolo[2,3b]pyridine], the SC1.5 was determined as 0.693 µM.

For the compound `COc1cnc2[nH]c(/C(=C/C3CCCO3)c3ccc(S(C)(=O)=O)cc3)cc2c1` (stereo not shown) [Example 21, 2-[(E)-1-(4-Methanesulfonyl-phenyl)-2-(tetrahydro-furan-2-yl)-vinyl]-5-methoxy-1H-pyrrolo[2,3-b]pyridine], the SC1.5 stood at 0.821 µM. Take `CCOC(=O)C(C)(C)Oc1cnc2[nH]c(C(CC3CCCC3)c3ccc(S(C)(=O)=O)cc3)cc2c1` (stereo not shown) [Example 26, 2-{2-[2-Cyclopentyl-1-(4-methanesulfonyl-phenyl)-ethyl]-1H-pyrrolo[2,3-b]pyridin-5-yloxy}-2-methyl-propionic acid ethyl ester]: the SC1.5 came to 2.3 µM. On the same count and under the same terms, in the case of `CC(C)(Oc1cnc2[nH]c(C(CC3CCCC3)c3ccc(S(C)(=O)=O)cc3)cc2c1)C(=O)O` (stereo not shown) [Example 27, 2-{2-[2-Cyclopentyl-1-(4-methanesulfonyl-phenyl)-ethyl]-1H-pyrrolo[2,3-b]pyridin-5-yloxy}-2-methyl-propionic acid] it was 13.5 µM.

For `CC(C)(CO)Oc1cnc2[nH]c(C(CC3CCCC3)c3ccc(S(C)(=O)=O)cc3)cc2c1` (stereo not shown) [Example 28, 2-{2-[2-Cyclopentyl-1-(4-methanesulfonyl-phenyl)-ethyl]-1H-pyrrolo[2,3-b]pyridin-5-yloxy}-2-methyl-propan-1-ol], the SC1.5 is 2.8 µM. Same read-out and setting: in the case of `CS(=O)(=O)c1ccc(C(CC2CCCC2)c2cc3cc(OCCO)cnc3[nH]2)cc1` (stereo not shown) [Example 30, 2-{2-[2-Cyclopentyl-1-(4-methanesulfonyl-phenyl)-ethyl]-1H-pyrrolo[2,3-b]pyridin-5-yloxy}-ethanol] it was 0.8 µM; in that of `COc1cnc2[nH]c(C(CC3CCOCC3)c3ccc(S(C)(=O)=O)cc3)cc2c1` (stereo not shown) [Example 31], 1.9 µM; in that of `COc1cnc2[nH]c(C(CC3CCOCC3)c3ccc(C(F)(F)F)cc3)cc2c1` (stereo not shown) [Example 33, 5-Methoxy-2-[2-(tetrahydro-pyran-4-yl)-1-(4-trifluoromethyl-phenyl)-ethyl]-1H-pyrrolo[2,3-b]pyridine], 3.0 µM. The same measure, in the same setting: in the case of `CS(=O)(=O)c1ccc(C(CC2CCCC2)c2cc3cc(CCO)cnc3[nH]2)cc1` (stereo not shown) [Example 36, 2-{2-[2-Cyclopentyl-1-(4-methanesulfonyl-phenyl)-ethyl]-1H-pyrrolo[2,3-b]pyridin-5-yl}-ethanol] it was 3.4 µM.

For the compound `CN(C)CC(=O)OCc1cnc2[nH]c(C(CC3CCCC3)c3ccc(S(C)(=O)=O)cc3)cc2c1` (stereo not shown) [Example 37, Dimethylamino-acetic acid 2-[2-cyclopentyl-1-(4-methanesulfonyl-phenyl)-ethyl]-1H-pyrrolo[2,3-b]pyridin-5-ylmethyl-ester], the SC1.5 amounted to 4.4 µM. In the case of `CS(=O)(=O)c1ccc(C(CC2CCCC2)c2cc3cc(CC#N)cnc3[nH]2)cc1` (stereo not shown) [Example 38, {2-[2-Cyclopentyl-1-(4-methanesulfonyl-phenyl)-ethyl]-1H-pyrrolo[2,3-b]pyridin-5-yl}-acetonitrile], the SC1.5 came out at 9.8 µM. As for `CN(C)C(=O)Cc1cnc2[nH]c(C(CC3CCCC3)c3ccc(S(C)(=O)=O)cc3)cc2c1` (stereo not shown) [Example 39, 2-{2-[2-Cyclopentyl-1-(4-methanesulfonyl-phenyl)-ethyl]-1H-pyrrolo[2,3-b]pyridin-5-yl}-N,N-dimethyl-acetamide], the SC1.5 worked out at 9.1 µM.

In the case of `CN(C)CCc1cnc2[nH]c(C(CC3CCCC3)c3ccc(S(C)(=O)=O)cc3)cc2c1` (stereo not shown) [Example 40, (2-{2-[2-Cyclopentyl-1-(4-methanesulfonyl-phenyl)-ethyl]-1H-pyrrolo[2,3-b]pyridin-5-yl}-ethyl)-dimethyl-amine], the SC1.5 was determined as 9.0 µM. For the compound `COCc1cnc2[nH]c(C(CC3CCCC3)c3ccc(S(C)(=O)=O)cc3)cc2c1` (stereo not shown) [Example 41, 2-[2-Cyclopentyl-1-(4-methanesulfonyl-phenyl)-ethyl]-5-methoxymethyl-1H-pyrrolo[2,3-b]pyridine], the SC1.5 turned out to be 2.8 µM.

For `N#Cc1ccc(C(CC2CCCC2)c2cc3cccnc3[nH]2)cc1` (stereo not shown) [Example 43, 4-[2-Cyclopentyl-1-(1H-pyrrolo[2,3-b]pyridin-2-yl)-ethyl]-benzonitrile], the SC1.5 is 1.4 µM. Consider `COCCCc1cnc2[nH]c(C(CC3CCCC3)c3ccc(S(C)(=O)=O)cc3)cc2c1` (stereo not shown) [Example 44, 2-[2-Cyclopentyl-1-(4-methanesulfonyl-phenyl)-ethyl]-5-(3-methoxy-propyl)-1H-pyrrolo[2,3-b]pyridine], for which the SC1.5 was 4.3 µM. Regarding `CS(=O)(=O)c1ccc(C(CC2CCCC2)c2cc3cc(CCCO)cnc3[nH]2)cc1` (stereo not shown) [Example 45, 3-{2-[2-Cyclopentyl-1-(4-methanesulfonyl-phenyl)-ethyl]-1H-pyrrolo[2,3-b]pyridin-5-yl}-propan-1-ol], the SC1.5 worked out at 14.9 µM.
